Results published in EP3698777A1, “COMPOSITION FOR PREVENTING AND TREATING DEPRESSIVE AND COGNITIVE SYMPTOMS” (NEURAXPHARM ITALY S.P.A., priority 2019, dated 2020).

Tests used:
[1] = test system: Human microglia cells HMC3; assay: Cell viability test (MTT assay); assay type: cell-based; conditions: 24 hours incubation, saffron extract 1 or 3 µg/mL, NAC 200 or 600 µM, fish oil 8.5 or 28.5 µg/mL, Figure 1
Procedure: Human microglia cells HMC3 (ATCC® CRL-3304™) were cultured in EMEM (Eagle's minimum essential medium) containing 10% FBS (fetal bovine serum) and PSG (1000 U/ml of Penicillin, 10000 ug/ml of Streptomycin, 29.2 mg/ml of L-Glutamine). The HMC3 cells were placed in 96-well plates with a density of 40,000 cells/well and let to adhere overnight in an incubator at 37°C, 5% CO2. The cells were then treated or not with different concentrations of the substances of the invention (saffron extract (1 µg/mL or 3 µg/mL), NAC (200 µM or 600 µM) or fish oil (8.5 µg/mL or 28.5 µg/mL) dissolved in EMEM with 10% FBS). After 24 hours incubation, cell viability was determined by MTT assay. Then, 10 µL of MTT (5 mg/mL solution) were added to the cells and incubated for 1 hour, followed by removal of the medium and dissolution of the crystals formed in 100 µL of isopropanol. Absorbance at 570 nm was measured with a spectrophotometer (SEAC SIRIO S) and the cell viability was expressed as a percentage of untreated control cells.

[2] = ORAC test (Oxygen Radical Absorbance Capacity); conditions: single ingredients taken at their percentage composition in the combination; combination = 1000 mg fish oil + 600 mg NAC + 30 mg dry saffron extract; Figure 2
Procedure: The ORAC method was used to assess the antioxidant activity of the substances of the invention by measuring the ability to protect the fluorescent probe (fluorescein) from damage due to peroxyl radical generated by spontaneous decomposition of AAPH (2,2'-azobis (2-amidine-propane) dihydrochloride) at 37°C, with consequent loss of fluorescence. The protective effect of the substances of the invention, alone or in combination, was measured by evaluating the longer area of time/fluorescence intensity under the curve (AUC) of the sample compared to the blank (AUC), wherein substances are not present. Trolox was the antioxidant used as the calibration standard, the ORAC results being expressed as Trolox equivalent micromol/gram of sample (i.e. µmol TE/g). […]
The ORAC test was performed by adding 150 µL of working solution with fluorescein to all the microplate wells, followed by the addition of 25 µL of diluted buffer (white), 50 µL of diluted buffer (control), 25 µL of standard (Trolox 6.25 - 50 µM) or 25 µL of the samples prepared before filling the microplate wells. […] The plate was immediately transferred to the plate reader and the fluorescence was measured every minute for 35 minutes. Fluorescence readings refer to the highest reading of the wells in which no AAPH (controls) is added.
The net AUC of the standards and samples were calculated. […]

SMILES: CC(=O)N[C@@H](CS)C(=O)O [NAC, N-acetylcysteine]
- cell viability [1]: do not influence the cell viability
- antioxidant activity (ORAC) [2]: 24.04 TE µmol/g
